Experiment: physchem
Format: physicochemical
Details: for half-life: 25% 1,4-dioxan
Description: The hydrolytic stability of the compounds of this invention was compared with representative examples of other phenoxy phthalides specifically described in Applicants' earlier EPA 145078. This property was evaluated by determining the half-life (in hours) at pH7.0 and 9.0 in 25% 1,4-dioxan at 39°C. The results of these tests are set out in Table I below, in which the test compounds are identified by reference to the substituent A in the following formula: [drawing 12] 'N.D.D.' = No detectable decomposition over a 200 hour period

Row | Half-Life pH 7.0 (pH 7) | Half-Life pH 9.0 (pH 9) | half-life (pH 7) [h] | half-life (pH 9) [h] | Structure (SMILES)
1 | NDD | NDD |  |  | CCC1(CC)OC(=O)c2ccc(Oc3ccc(C(F)(F)F)cc3Cl)cc21 [C(C2H5)2, H, 5-(2'-Chloro-4'-trifluoromethylphenoxy)-3,3-diethylphthalide]
2 | NDD | NDD |  |  | CC1(C)OC(=O)c2ccc(Oc3c(Cl)cc(C(F)(F)F)cc3Cl)cc21 [C(CH3)2, Cl]
3 |  |  | 4920 | 1900 | CC1(C)OC(=O)c2ccc(Oc3ccc(C(F)(F)F)cc3Cl)cc21 [C(CH3)2, H, 5-(2'-Chloro-4'-trifluoromethylphenoxy)-3,3-dimethyl phthalide]
4 | NDD | NDD |  |  | CCC1(C)OC(=O)c2ccc(Oc3ccc(C(F)(F)F)cc3Cl)cc21 (centres unmarked) [C(CH3)(C2H5), H]
5 |  |  | 56.5 | 14.5 | O=C1OCc2cc(Oc3ccc(C(F)(F)F)cc3Cl)ccc21 [CH2, H, reference compound]
6 |  |  | 1060 | 11 | CC1OC(=O)c2ccc(Oc3ccc(C(F)(F)F)cc3Cl)cc21 (centres unmarked) [CH(CH3), H, (2'-chloro-9'-trifluoro-methylphenoxy)-3-methyl phthalide, reference compound]
7 |  |  | 17.2 | 1.2 | COC1OC(=O)c2ccc(Oc3ccc(C(F)(F)F)cc3Cl)cc21 (centres unmarked) [CH(OCH3), H, reference compound]

Reference: patent publication EP0219144A1, “Diphenyl ether herbicides” (SHELL INTERNATIONALE RESEARCH MAATSCHAPPIJ B.V., priority 1985, dated 1987)
